Measured values as given in ChEMBL document CHEMBL1932923, “Structure-activity relationships for naturally occurring coumarins as β-secretase inhibitor” (Bioorg Med Chem, 2012).
pIC50, pKi: −log10 of the molar value. Calls of active or inactive are those of the source. No cut-off for these calls is given here. Non-standard residues stand in square brackets, D forms with d. Residues, ends and D or L forms follow the SMILES beside them. Sta = CC(C)C[C@H](N)[C@@H](O)CC(=O)O

These compounds were tested against T1, Beta-secretase 1 (Homo sapiens, UniProt P56817) (assay: Inhibition of recombinant human BACE1 using Rh-EVNLDAEFK as substrate after 60 mins by fluorescence quenching assay).
T1 sequence (P56817 whole entry): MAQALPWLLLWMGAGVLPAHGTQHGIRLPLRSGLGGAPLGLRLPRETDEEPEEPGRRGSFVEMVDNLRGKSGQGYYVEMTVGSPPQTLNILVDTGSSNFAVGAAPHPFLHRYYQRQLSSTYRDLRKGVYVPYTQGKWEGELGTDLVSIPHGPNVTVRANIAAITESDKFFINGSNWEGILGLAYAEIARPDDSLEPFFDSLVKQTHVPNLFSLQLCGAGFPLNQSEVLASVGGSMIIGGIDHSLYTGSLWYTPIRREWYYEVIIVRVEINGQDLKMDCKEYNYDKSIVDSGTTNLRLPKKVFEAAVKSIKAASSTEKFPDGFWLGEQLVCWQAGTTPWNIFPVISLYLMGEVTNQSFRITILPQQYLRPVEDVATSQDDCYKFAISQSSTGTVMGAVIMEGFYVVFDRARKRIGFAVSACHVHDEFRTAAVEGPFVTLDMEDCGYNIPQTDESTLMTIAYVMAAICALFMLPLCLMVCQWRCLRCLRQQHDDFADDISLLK

Row | pIC50 | Compound
1 | 4.69 | CC(C)=CCC/C(C)=C/COc1c2occc2cc2ccc(=O)oc12
2 | < 3.30 | CC(C)=CCOc1c2ccoc2c(OCC=C(C)C)c2oc(=O)ccc12
3 | < 3.30 | O=c1ccc2c(O)c3ccoc3c(O)c2o1
4 | < 3.30 | CC(C)=CCOc1c2ccoc2c(O)c2oc(=O)ccc12
5 | < 3.30 | CC(C)=CCC/C(C)=C/COc1c2ccoc2c(O)c2oc(=O)ccc12
6 | 5.00 | COc1c2occc2c(OC/C=C(\C)CCC=C(C)C)c2ccc(=O)oc12
7 | 4.95 | COc1c2ccoc2c(OC/C=C(\C)CCC=C(C)C)c2oc(=O)ccc12
8 | 6.70 | CC[C@H](C)[C@H](NC(=O)[C@H](CCC(=O)O)NC(=O)[C@H](CCC(=O)O)NC(=O)[C@@H](NC(=O)[C@@H](N)CCCCN)[C@@H](C)O)C(=O)N[C@@H](CO)C(=O)N[C@@H](CCC(=O)O)C(=O)N[C@H](C(=O)N[C@@H](CC(N)=O)C(=O)N[C@@H](CC(C)C)[C@@H](O)CC(=O)N[C@H](C(=O)N[C@@H](C)C(=O)N[C@@H](CCC(=O)O)C(=O)N[C@@H](Cc1ccccc1)C(=O)O)C(C)C)C(C)C (H-KTEEISEVN[Sta]VAEF-OH)
9 | < 3.30 | CC(C)=CCOc1ccc2ccc(=O)oc2c1 [7-PRENYLOXYCOUMARIN]
10 | 3.46 | CC(C)=CCC/C(C)=C/COc1ccc2ccc(=O)oc2c1 [AURAPTENE]
11 | 4.49 | CC(C)=CCC/C(C)=C/COc1c2ccoc2cc2oc(=O)ccc12 [BERGAMOTTIN]
12 | 3.66 | COc1c2ccoc2c(OC[C@@H](O)C(C)(C)O)c2oc(=O)ccc12 [BYAKANGELICIN]
13 | 3.98 | COc1c2ccoc2c(OC[C@H]2OC2(C)C)c2oc(=O)ccc12 [BYAKANGELICOL]
14 | < 3.30 | CC(C)(O)[C@@H]1Cc2c(ccc3ccc(=O)oc23)O1 [COLUMBIANETIN]
15 | < 3.30 | O=c1ccc2ccccc2o1 [COUMARIN]
16 | < 3.30 | C/C=C(\C)C(=O)O[C@H]1Cc2cc3ccc(=O)oc3cc2OC1(C)C [DECURSINOL TIGLATE]
17 | < 3.30 | CC1(C)Oc2cc3oc(=O)ccc3cc2C[C@@H]1O [DECURSINOL]
18 | < 3.30 | CC(C)=CC(=O)O[C@H]1Cc2cc3ccc(=O)oc3cc2OC1(C)C [DECURSIN]
19 | < 3.30 | CC1(C)CCc2cc3ccc(=O)oc3cc2O1 [DIHYDROXANTHYLETIN]

Row | pIC50 | Compound
20 | < 3.30 | CC(C)(O)[C@H](O)COc1c2occc2cc2ccc(=O)oc12 [HERACLENOL]
21 | < 3.30 | COc1ccc2ccc(=O)oc2c1 [HERNIARIN]
22 | < 3.30 | COc1c2ccoc2c(OC)c2oc(=O)ccc12 [ISOPIMPINELLIN]
23 | 3.46 | COc1c2occc2c(OCC=C(C)C)c2ccc(=O)oc12 [KINIDILIN]
24 | < 3.30 | CC1(C)Oc2ccc3ccc(=O)oc3c2CC1O (centres undefined) [LOMATIN]
25 | < 3.30 | CC(C)(O)[C@@H]1Cc2cc3ccc(=O)oc3cc2O1 [MARMESIN]
26 | < 3.30 | COc1c2occc2cc2ccc(=O)oc12 [METHOXSALEN]
27 | < 3.30 | CC(C)=CCc1c(O)ccc2ccc(=O)oc12 [OSTHENOL]
28 | < 3.30 | COc1ccc2ccc(=O)oc2c1CC=C(C)C [OSTHOLE]
29 | < 3.30 | CC(C)(O)[C@H](O)COc1c2ccoc2cc2oc(=O)ccc12 [OXYPEUCEDANIN HYDRATE]
30 | 3.44 | CC1(C)O[C@H]1COc1c2ccoc2cc2oc(=O)ccc12 [OXYPEUCEDANIN]
31 | 3.84 | COc1c2ccoc2c(OCC=C(C)C)c2oc(=O)ccc12 [PHELLOPTERIN]
32 | < 3.30 | O=c1ccc2cc3ccoc3cc2o1 [PSORALEN]
33 | < 3.30 | COc1cc2ccc(=O)oc2cc1OC [SCOPARONE]
34 | < 3.30 | CC1(C)C=Cc2c(ccc3ccc(=O)oc23)O1 [SESALIN]
35 | < 3.30 | COc1cc2oc(=O)ccc2cc1CC=C(C)C [SUBEROSIN]
36 | < 3.30 | O=c1ccc2ccc(O)cc2o1 [UMBELLIFERONE]
37 | < 3.30 | CC1(C)C=Cc2cc3ccc(=O)oc3cc2O1 [XANTHYLETIN]

Row | Compound | pIC50
38 | COc1c2ccoc2c(O)c2oc(=O)ccc12 | < 3.30
39 | O=c1ccc2ccc3occc3c2o1 [ANGELICIN] | < 3.30
40 | COc1c2ccoc2cc2oc(=O)ccc12 [BERGAPTEN] | < 3.30
41 | O=c1ccc2c(O)c3ccoc3cc2o1 [BERGAPTOL] | < 3.30
42 | CC(C)=CCc1cc2ccc(=O)oc2cc1O [DEMETHYLSUBEROSIN] | 3.38
43 | CC1(C)O[C@@H]1COc1c2occc2cc2ccc(=O)oc12 [HERACLENIN] | 3.35
44 | CC(C)=CCOc1c2occc2cc2ccc(=O)oc12 [PENTOSALEN] | 4.04
45 | O=c1ccc2cc3ccoc3c(O)c2o1 [XANTHOTOXOL] | < 3.30

Each compound was assayed against T1, Beta-secretase 1 (assay: Inhibition of recombinant human BACE1 assessed as dissociation constant of enzyme-inhibitor complex using Rh-EVNLDAEFK as substrate by Dixon and Cornish-Bowden plots analysis).

Row | pKi | Compound
46 | 4.21 | CC(C)=CCC/C(C)=C/COc1c2occc2cc2ccc(=O)oc12
47 | 3.99 | COc1c2occc2c(OC/C=C(\C)CCC=C(C)C)c2ccc(=O)oc12
48 | 4.46 | CC(C)=CCC/C(C)=C/COc1c2ccoc2cc2oc(=O)ccc12 [BERGAMOTTIN]

These compounds were tested against T1, Beta-secretase 1 (assay: Mixed type inhibition of recombinant human BACE1 using Rh-EVNLDAEFK as substrate by Dixon and Cornish-Bowden plots analysis).

Row | inhibition | Compound
49 | Active | COc1c2occc2c(OC/C=C(\C)CCC=C(C)C)c2ccc(=O)oc12
50 | Active | CC(C)=CCC/C(C)=C/COc1c2ccoc2cc2oc(=O)ccc12 [BERGAMOTTIN]

These compounds were tested against T1, Beta-secretase 1 (assay: Non-competitive inhibition of recombinant human BACE1 using Rh-EVNLDAEFK as substrate by Dixon and Cornish-Bowden plots analysis).

Row | inhibition | Compound
51 | Active | CC(C)=CCC/C(C)=C/COc1c2occc2cc2ccc(=O)oc12

These compounds were tested against T1, Beta-secretase 1 (assay: Inhibition of recombinant human BACE1 assessed as dissociation constant of enzyme-substrate-inhibitor complex using Rh-EVNLDAEFK as substrate by Dixon and Cornish-Bowden plots analysis).

Row | pKi | Compound
52 | 4.21 | CC(C)=CCC/C(C)=C/COc1c2occc2cc2ccc(=O)oc12
53 | 4.86 | COc1c2occc2c(OC/C=C(\C)CCC=C(C)C)c2ccc(=O)oc12
54 | 6.15 | CC(C)=CCC/C(C)=C/COc1c2ccoc2cc2oc(=O)ccc12 [BERGAMOTTIN]
